# From patent US8445478B2 (Sanofi, priority 2007, dated 2013)
# Key:
# human CB1 receptor = human CB1 receptor (Homo sapiens, UniProt P21554); experiment: cell-based
# Procedure: The compounds according to the invention were the subject of pharmacological tests for determining the activity with respect to human cannabinoid CB1-type receptors. The efficacy of the compounds of formula (I) was determined in a functional test which measures cannabinoid CB1 receptor activity (intracellular cyclic AMP test). The test for detecting intracellular cyclic AMP in U373MG cells naturally expressing the human CB1 receptor was carried out as described in the reference: Bouaboula et al., 1995, J. Biol. Chem. 270:13973-13980. The HTRF cAMP Dynamic Kit from CisBio was used to quantify the intracellular cyclic AMP.
# [1] = molecular target: T1, cannabinoid CB1-type receptor (Mus musculus, UniProt P47746); experiment: inhibition of gastrointestinal transit induced by racemic CP55,940 in mice; format: in vivo; conditions: 1 mg/kg per os; 3 hours after administration of the product; male CD1 mice; CP55,940 0.15 mg/kg ip
# T1 construct: male CD1 mice received the test product per os; from tissue; host or cells: whole animal, male CD1 mice
# Procedure: After a further 30 minutes, the animals received a charcoal bolus po. Thirty minutes later, the animals are sacrificed by euthanasia (CO2/O2) and the intestine is dissected. The progression of the charcoal bolus in the intestine is expressed as percentage of the total length of the intestine.
# cannabinoid CB receptor = cannabinoid CB receptor (Mus musculus, UniProt P47746); experiment: hypothermia induced by cannabinoid CB receptor agonist CP55,940 in mice; conditions: 3 mg/kg po; male CD1 mice; CP55,940 1.25 mg/kg i.p.; rectal temperature at 90 minutes
# cannabinoid CB receptor, sequence (P47746 whole entry): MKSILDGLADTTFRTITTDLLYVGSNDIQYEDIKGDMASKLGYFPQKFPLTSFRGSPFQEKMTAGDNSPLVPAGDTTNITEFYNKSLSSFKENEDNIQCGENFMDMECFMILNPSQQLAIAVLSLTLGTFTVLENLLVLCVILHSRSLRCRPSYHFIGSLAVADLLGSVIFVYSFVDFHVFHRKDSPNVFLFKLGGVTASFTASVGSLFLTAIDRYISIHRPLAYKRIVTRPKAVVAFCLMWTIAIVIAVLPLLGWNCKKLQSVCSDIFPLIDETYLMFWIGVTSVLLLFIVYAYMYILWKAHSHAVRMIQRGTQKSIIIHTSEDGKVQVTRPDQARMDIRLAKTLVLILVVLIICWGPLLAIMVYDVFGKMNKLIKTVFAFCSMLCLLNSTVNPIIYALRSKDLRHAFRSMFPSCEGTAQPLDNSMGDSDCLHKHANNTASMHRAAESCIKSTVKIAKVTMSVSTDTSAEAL
# Procedure: At time 0 min, the rectal temperature of male CD1 mice is measured before injection of the test product. At 30 minutes, a further measurement of the rectal temperature of the mice is taken and the racemic CP55,940 agonist ORS, 3RS, 4RS-3-[hydroxy-2-(1,1-dimethylheptyl)phenyl]-4-(3-hydroxypropyl)cyclohexan-1-ol) (1.25 mg/kg i.p. in 10% cremophor) is administered. At 90 minutes, the rectal temperature is again taken. The results are expressed as % relative to the control batch injected with the CP55,940 (minimum temperature) and to the carrier batch without CP55,940 treatment (maximum temperature).
# T1 sequence (P47746 whole entry): as above
# human CB1 receptor, sequence (P21554 whole entry): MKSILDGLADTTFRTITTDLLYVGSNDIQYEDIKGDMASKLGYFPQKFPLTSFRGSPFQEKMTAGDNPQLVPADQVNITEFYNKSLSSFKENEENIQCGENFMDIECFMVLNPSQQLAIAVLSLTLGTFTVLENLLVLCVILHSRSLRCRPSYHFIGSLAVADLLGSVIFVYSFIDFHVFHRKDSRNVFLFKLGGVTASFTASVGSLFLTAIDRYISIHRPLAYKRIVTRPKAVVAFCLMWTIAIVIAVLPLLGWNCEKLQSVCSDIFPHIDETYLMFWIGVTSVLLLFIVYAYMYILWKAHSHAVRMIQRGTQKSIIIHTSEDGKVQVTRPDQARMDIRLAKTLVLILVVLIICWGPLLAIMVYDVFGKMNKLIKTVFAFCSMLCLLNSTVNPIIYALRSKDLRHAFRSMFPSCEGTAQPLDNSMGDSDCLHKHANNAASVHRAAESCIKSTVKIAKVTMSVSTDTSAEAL
smiles,measurement,setting,value
C[C@H](NC(=O)c1cccc(N(C2CN(C(c3ccc(Cl)cc3)c3ccc(Cl)cc3)C2)S(C)(=O)=O)c1)C(N)=O,IC50,human CB1 receptor,43 nM
same,percentages of inhibition (gastrointestinal transit model),[1],39.2%
same,percentages of inhibition of the decrease in temperature induced by the agonist,cannabinoid CB receptor,5%
"CC[C@H](NC(=O)c1cc(F)cc(NS(=O)(=O)CC2CN(C(c3ccc(Cl)cc3)c3ccc(Cl)cc3)C2)c1)C(N)=O [compound 14, 3-({1-[bis(4-chlorophenyl)methyl]azetidin-3-yl}methanesulphonylamino)-N—((S)-1-carbamoylpropyl)-5-fluorobenzamide]",melting point,,212 to 214 °C
"NC(=O)CCCNC(=O)c1cc(F)cc(NS(=O)(=O)CC2CN(C(c3ccc(Cl)cc3)c3ccc(Cl)cc3)C2)c1 [compound 28, 3-({1-[bis(4-chlorophenyl)methyl]azetidin-3-yl}methanesulphonylamino)-N-(3-carbamoylpropyl)-5-fluorobenzamide]",melting point,,186 °C
CC[C@H](NC(=O)c1ccc(F)c(N(C2CN(C(c3ccc(Cl)cc3)c3ccc(Cl)cc3)C2)S(C)(=O)=O)c1)C(N)=O [compound 36],IC50,human CB1 receptor,952 nM
"CC[C@H](NC(=O)c1cccc(NS(=O)(=O)CC2CN(C(c3ccc(Cl)cc3)c3ccc(Cl)cc3)C2)c1)C(N)=O [compound 10, 3-({1-[bis(4-chlorophenyl)methyl]azetidin-3-yl}methanesulphonylamino)-N—((S)-1-carbamoylpropyl)benzamide]",melting point,,220 to 222 °C
"CNC(=O)CNC(=O)c1cccc(NS(=O)(=O)CC2CN(C(c3ccc(Cl)cc3)c3ccc(Cl)cc3)C2)c1 [compound 15, 3-({1-[bis(4-chlorophenyl)methyl]azetidin-3-yl}methanesulphonylamino)-N-(methylcarbamoylmethyl)benzamide]",melting point,,216 °C
"CNC(=O)[C@H](C)NC(=O)c1cc(F)cc(NS(=O)(=O)CC2CN(C(c3ccc(Cl)cc3)c3ccc(Cl)cc3)C2)c1 [compound 26, 3-({1-[bis(4-chlorophenyl)methyl]azetidin-3-yl}methanesulphonylamino)-5-fluoro-N—((S)-1-methylcarbamoylethyl)benzamide]",melting point,,150 °C
"C[C@H](NC(=O)c1cc(F)cc(N(C2CN(C(c3ccc(Br)cc3)c3ccc(Br)cc3)C2)S(C)(=O)=O)c1)C(N)=O [compound 70, 3-({1-[bis(4-bromophenyl)methyl]azetidin-3-yl}methanesulphonylamino)-N—((S)-1-carbamoylethyl)-5-fluorobenzamide]",IC50,human CB1 receptor,31 nM
"O=C(NCC(=O)N1CCOCC1)c1cccc(NS(=O)(=O)CC2CN(C(c3ccc(Cl)cc3)c3ccc(Cl)cc3)C2)c1 [Compound No. 8, 3-({1-[bis(4-chlorophenyl)methyl]azetidin-3-yl}methanesulphonylamino)-N-(2-morpholin-4-yl-2-oxoethyl)benzamide]",melting point,,176 °C
C[C@H](NC(=O)c1cc(F)cc(N(C2CN(C(c3ccc(Cl)cc3)c3ccc(Cl)cc3)C2)S(C)(=O)=O)c1)C(N)=O,IC50,human CB1 receptor,9 nM
same,percentages of inhibition (gastrointestinal transit model),[1],49%
"CC[C@H](NC(=O)c1cc(NS(=O)(=O)CC2CN(C(c3ccc(Cl)cc3)c3ccc(Cl)cc3)C2)cc(C(F)(F)F)c1)C(N)=O [compound 55, 3-({1-[bis(4-chlorophenyl)methyl]azetidin-3-yl}methanesulphonylamino)-N—((S)-1-carbamoylpropyl)-5-trifluoromethylbenzamide]",percentages of inhibition (gastrointestinal transit model),[1],74%
same,percentages of inhibition of the decrease in temperature induced by the agonist,cannabinoid CB receptor,28%
C[C@H](NC(=O)c1cc(N(C2CN(C(c3ccc(Cl)cc3)c3ccc(Cl)cc3)C2)S(C)(=O)=O)cc(C(F)(F)F)c1)C(=O)O [compound 68],IC50,human CB1 receptor,24 nM
same,percentages of inhibition (gastrointestinal transit model),[1],7%
"C[C@@H](NC(=O)c1cc(F)cc(NS(=O)(=O)CC2CN(C(c3ccc(Cl)cc3)c3ccc(Cl)cc3)C2)c1)C(N)=O [Compound No. 4, 3-({1-[bis(4-chlorophenyl)methyl]azetidin-3-yl}methanesulphonylamino)-N—((R)-1-carbamoylethyl)-5-fluorobenzamide]",melting point,,219 to 221 °C
"COc1cc(NS(=O)(=O)CC2CN(C(c3ccc(Cl)cc3)c3ccc(Cl)cc3)C2)cc(C(=O)N[C@@H](C)C(N)=O)c1 (hydrate or solvate) [compound 22, 3-({1-[bis(4-chlorophenyl)methyl]azetidin-3-yl}methanesulphonylamino)-N—((S)-1-carbamoylethyl)-5-methoxybenzamide]",melting point,,183 to 185 °C
"NC(=O)CNC(=O)c1cc(F)cc(NS(=O)(=O)CC2CN(C(c3ccc(Cl)cc3)c3ccc(Cl)cc3)C2)c1 [Compound No. 2, 3-({1-[bis(4-chlorophenyl)methyl]azetidin-3-yl}methanesulphonylamino)-N-carbamoylmethyl-5-fluorobenzamide]",melting point,,154 to 156 °C
"C[C@H](NC(=O)c1cccc(NS(=O)(=O)CC2CN(C(c3ccc(Cl)cc3)c3ccc(Cl)cc3)C2)c1)C(N)=O [Compound No. 1, 3-({1-[bis(4-chlorophenyl)methyl]azetidin-3-yl}methanesulphonylamino)-N—((S)-1-carbamoylethyl)benzamide]",melting point,,229 °C
"C[C@@H](NC(=O)c1cccc(NS(=O)(=O)CC2CN(C(c3ccc(Cl)cc3)c3ccc(Cl)cc3)C2)c1)C(N)=O [Compound No. 5, 3-({1-[Bis(4-chlorophenyl)methyl]azetidin-3-yl}methanesulphonylamino)-N—((R)-1-carbamoylethyl)benzamide]",melting point,,235 °C
"NC(=O)CCNC(=O)c1cccc(NS(=O)(=O)CC2CN(C(c3ccc(Cl)cc3)c3ccc(Cl)cc3)C2)c1 [Compound No. 7, 3-({1-[bis(4-chlorophenyl)methyl]azetidin-3-yl}methanesulphonylamino)-N-(2-carbamoylethyl)benzamide]",melting point,,190 to 192 °C
C[C@@H](NC(=O)c1cc(F)cc(N(C2CN(C(c3ccc(Cl)cc3)c3ccc(Cl)cc3)C2)S(C)(=O)=O)c1)C(N)=O,IC50,human CB1 receptor,284 nM
"CNC(=O)[C@H](C)NC(=O)c1cc(NS(=O)(=O)CC2CN(C(c3ccc(Cl)cc3)c3ccc(Cl)cc3)C2)cc(C(F)(F)F)c1 [compound 57, 3-({1-[bis(4-chlorophenyl)methyl]azetidin-3-yl}methanesulphonylamino)-N—((S)-1-methylcarbamoylethyl)-5-trifluoromethylbenzamide]",percentages of inhibition (gastrointestinal transit model),[1],78%
same,percentages of inhibition of the decrease in temperature induced by the agonist,cannabinoid CB receptor,21%
"CNC(=O)[C@H](C)NC(=O)c1cccc(NS(=O)(=O)CC2CN(C(c3ccc(Cl)cc3)c3ccc(Cl)cc3)C2)c1 [Compound No. 9, 3-({1-[bis(4-chlorophenyl)methyl]azetidin-3-yl}methanesulphonylamino)-N—((S)-1-methylcarbamoylethyl)benzamide]",melting point,,171 to 173 °C
"NC(=O)CNC(=O)c1cccc(NS(=O)(=O)CC2CN(C(c3ccc(Cl)cc3)c3ccc(Cl)cc3)C2)c1 [compound 16, 3-({1-[bis(4-chlorophenyl)methyl]azetidin-3-yl}methanesulphonylamino)-N-(carbamoylmethyl)benzamide]",melting point,,196 to 198 °C
"NC(=O)[C@H](CO)NC(=O)c1cc(F)cc(NS(=O)(=O)CC2CN(C(c3ccc(Cl)cc3)c3ccc(Cl)cc3)C2)c1 [compound 13, 3-({1-[bis(4-chlorophenyl)methyl]azetidin-3-yl}methanesulphonylamino)-N—((S)-1-carbamoyl-2-hydroxyethyl)-5-fluorobenzamide]",melting point,,212 to 214 °C
CCOC(=O)[C@H](C)NC(=O)c1cc(F)cc(N(C2CN(C(c3ccc(Cl)cc3)c3ccc(Cl)cc3)C2)S(C)(=O)=O)c1 [compound 79],IC50,human CB1 receptor,70 nM
"Cc1cc(NS(=O)(=O)CC2CN(C(c3ccc(Cl)cc3)c3ccc(Cl)cc3)C2)cc(C(=O)N[C@@H](C)C(N)=O)c1 [compound 38, 3-({1-[bis(4-chlorophenyl)methyl]azetidin-3-yl}methanesulphonylamino)-N—((S)-1-carbamoylethyl)-5-methylbenzamide]",percentages of inhibition of the decrease in temperature induced by the agonist,cannabinoid CB receptor,17%
CC(C)[C@H](NC(=O)c1cc(N(C2CN(C(c3ccc(Cl)cc3)c3ccc(Cl)cc3)C2)S(C)(=O)=O)cc(C(F)(F)F)c1)C(N)=O [compound 56],IC50,human CB1 receptor,41 nM
"C[C@H](NC(=O)c1cc(F)cc(NS(=O)(=O)CC2CN(C(c3ccc(Cl)cc3)c3ccc(Cl)cc3)C2)c1)C(N)=O [Compound No. 3, 3-({1-[Bis(4-chlorophenyl)methyl]azetidin-3-yl}methanesulphonylamino)-N—((S)-1-carbamoylethyl)-5-fluorobenzamide]",melting point,,228 to 230 °C
